The source of these data is patent US20210355121A1, “FUSED TRICYCLIC KRAS INHIBITORS” (Incyte Corporation, priority 2020, published 2021).

In general, pIC50 refers to −log10 of the IC50, conventionally taken in molar units.

Molecules are shown by their SMILES. pIC50: −log10 of the molar value.

Experiment [1] deals with KRAS G12C (Homo sapiens, UniProt P01116, G12C). Put plainly: KRAS G12C GDP-GTP exchange assay (bodipy-GDP for GppNHp, with SOS1). The following applies: 2.5 nM bodipy-loaded KRAS G12C, 2 hours pre-incubation with inhibitor, 2 hours after GppNHp-SOS1; read-out: G12C_exchange (KRAS_G12C exchange assay IC50). It is filed as biochemical. The method in brief:
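Fluorescence nucleotide-exchange assay: bodipy-GDP-loaded KRAS (2.5 nM final) pre-incubated with inhibitor 2 h at ambient temperature, then 500 µM GppNHp plus 150 nM SOS1 added in pH 7.5 Hepes/MgCl2 buffer. Exchange read at ex 485/em 520 nm after 2 h (G12C), 4 h (G12D) or 3 h (G12V). IC50 from four-parameter logistic fit.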

The test system of experiment [2] is MIA PaCa-2 (KRAS G12C) cells. Put plainly: KRAS_G12C cellular pERK HTRF assay. The note with it: phospho-ERK1/2 HTRF, 4 hours incubation; for pIC50: Homo sapiens, MIA PaCa-2, read-out: G12C_pERK (KRAS_G12C pERK assay IC50). Also on record: G12C_pERK (KRAS_G12C pERK assay IC50): scale not given here. In kind it is cell-based, human. The method in brief: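 MIA PaCa-2 (G12C) or G12D lines (A427, HPAF-II) in RPMI/10% FBS, treated with compound for 4 h (G12C) or 2 h (G12D) at 37 °C after overnight plating. Lysed, phospho-ERK1/2 detected by HTRF (665/620 nm). IC50 from percent inhibition versus log concentration.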
(In general: TR-FRET usually uses a lanthanide donor and a delayed reading to cut background.)

Sequence of KRAS G12C (P01116 1-188 isoform P01116-2 G12C): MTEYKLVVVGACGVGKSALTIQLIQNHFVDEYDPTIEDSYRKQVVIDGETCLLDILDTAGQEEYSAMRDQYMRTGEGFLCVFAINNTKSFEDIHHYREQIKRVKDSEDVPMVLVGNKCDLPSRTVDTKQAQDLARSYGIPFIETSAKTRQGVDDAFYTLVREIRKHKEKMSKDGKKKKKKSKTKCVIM

Regarding `C=CC(=O)N1CC[C@H](n2ncc3c(OC[C@@H]4CCCN4C)nc4c(F)c(-c5cccc(C)c5C(F)(F)F)c(Cl)cc4c32)C[C@H]1CC#N` [Example 28, 2-((2S,4S)-1-acryloyl-4-(8-chloro-6-fluoro-7-(3-methyl-2-(trifluoromethyl)phenyl)-4-(((S)-1-methylpyrrolidin-2-yl)methoxy)-1H-pyrazolo[4,3-c]quinolin-1-yl)piperidin-2-yl)acetonitrile], the pIC50 in experiment [1] and in experiment [2] was at least 7.00 each time.

`C=C(F)C(=O)N1CC[C@H](n2ncc3c(OCC4CCCN4C)nc4c(F)c(-c5c(C)c(C)cc6[nH]ncc56)c(Cl)cc4c32)C[C@H]1CC#N` (single isomer, unassigned) [Example 77a]: the pIC50 in experiment [1] and in experiment [2] was at least 7.00 each time.

On to `C=C(F)C(=O)N1CC[C@H](n2ncc3c(N4CC(C)(N(C)C)C4)nc4c(F)c(-c5c(C)c(C)cc6[nH]ncc56)c(Cl)cc4c32)C[C@H]1CC#N` (single isomer, unassigned) [Example 81a], for which the pIC50 in experiment [1] and in experiment [2] was at least 7.00 throughout.

For `Cc1c(Cl)cc2[nH]ncc2c1-c1c(Cl)cc2c(nc(N3CC(C)(N(C)C)C3)c3cnn([C@H]4CCN(C(=O)/C=C/C(F)F)[C@H](CC#N)C4)c32)c1F` (single isomer, unassigned) [Example 14a], the pIC50 in experiment [1] and in experiment [2] was at least 7.00 throughout.

Consider `CC#CC(=O)N1CC[C@H](n2ncc3c(O[C@@H](C)[C@@H]4CCCN4C)nc4c(F)c(-c5c(C)c(C)cc6[nH]ncc56)c(C)cc4c32)C[C@H]1CC#N` (single isomer, unassigned) [Example 69b], for which the pIC50 in experiment [1] and in experiment [2] was at least 7.00 in each case.

In the case of `COC/C=C/C(=O)N1CC[C@H](n2ncc3c(N4CC(C)(N(C)C)C4)nc4c(F)c(-c5c(C)c(C)cc6[nH]ncc56)c(Cl)cc4c32)C[C@H]1CC#N` (single isomer, unassigned) [Example 83a], the pIC50 in experiment [1] and in experiment [2] was at least 7.00 throughout.

With `C=C(F)C(=O)N1CC[C@H](n2ncc3c(N4CC(N(C)C)C4)nc4c(F)c(-c5c(C)c(Cl)cc6[nH]ncc56)c(Cl)cc4c32)C[C@H]1CC#N` (single isomer, unassigned) [Example 8a], the pIC50 in experiment [1] and in experiment [2] was at least 7.00 each time.

On to `Cc1c(Cl)cc2[nH]ncc2c1-c1c(Cl)cc2c(nc(N3CC(C)(N(C)C)C3)c3cnn([C@H]4CCN(C(=O)/C=C/CF)[C@H](CC#N)C4)c32)c1F` (single isomer, unassigned) [Example 13a], for which the pIC50 in experiment [1] and in experiment [2] was at least 7.00 in each case.

Consider `Cc1c(Cl)cc2[nH]ncc2c1-c1c(Cl)cc2c(nc(N3CC(N(C)C)C3)c3cnn([C@H]4CCN(C(=O)/C=C/CF)[C@H](CC#N)C4)c32)c1F` (single isomer, unassigned) [Example 6a], for which the pIC50 in experiment [1] and in experiment [2] was at least 7.00 throughout.

Regarding `C=CC(=O)N1CC[C@H](n2ncc3c(N4CC(N(C)C)C4)nc4c(F)c(-c5cccc(C)c5Cl)c(Cl)cc4c32)C[C@H]1CC#N` [Example 23, 2-((2S,4S)-1-acryloyl-4-(8-chloro-7-(2-chloro-3-methylphenyl)-4-(3-(dimethylamino)azetidin-1-yl)-6-fluoro-1H-pyrazolo[4,3-c]quinolin-1-yl)piperidin-2-yl)acetonitrile], the pIC50 in experiment [1] and in experiment [2] was at least 7.00 each time.

For `C=C(F)C(=O)N1CC[C@H](n2ncc3c(N4CC(N(C)C)C4)nc4c(F)c(-c5c(C)c(C)cc6[nH]ncc56)c(Cl)cc4c32)C[C@H]1CC#N` (single isomer, unassigned) [Example 73a], the pIC50 in experiment [1] and in experiment [2] was at least 7.00 in each case.

Regarding `Cc1cc2[nH]ncc2c(-c2c(Cl)cc3c(nc(OC[C@@H]4CCCN4C)c4cnn([C@H]5CCN(C(=O)/C=C/CN(C)C)[C@H](CC#N)C5)c43)c2F)c1C` (single isomer, unassigned) [Example 80a], the pIC50 in experiment [1] and in experiment [2] was at least 7.00 in each case.

For the molecule `C=C(F)C(=O)N1CC[C@H](n2ncc3c(N4CC(C)(N(C)C)C4)nc4c(F)c(-c5cccc6cccc(C#N)c56)c(C)cc4c32)C[C@H]1CC#N` (single isomer, unassigned) [Example 59a], the pIC50 in experiment [1] and in experiment [2] was at least 7.00 throughout.

Regarding `CC#CC(=O)N1CC[C@H](n2ncc3c(N4CC(N(C)C)C4)nc4c(F)c(-c5cccc(Cl)c5Cl)c(Cl)cc4c32)C[C@H]1CC#N` (single isomer, unassigned) [Example 26a], the pIC50 in experiment [1] and in experiment [2] was at least 7.00 throughout.

Consider `Cc1cc2[nH]ncc2c(-c2c(Cl)cc3c(nc(N4CC(N(C)C)C4)c4cnn([C@H]5CCN(C(=O)/C=C/CN(C)C)[C@H](CC#N)C5)c43)c2F)c1C` (single isomer, unassigned) [Example 76a], for which the pIC50 in experiment [1] and in experiment [2] was at least 7.00 in each case.

For `Cc1cc2c(nc(OC[C@@H]3CCCN3C)c3cnn([C@H]4CCN(C(=O)/C=C/CF)[C@H](CC#N)C4)c32)c(F)c1-c1cccc2cccc(C#N)c12` (single isomer, unassigned) [Example 51a], the pIC50 in experiment [1] and in experiment [2] was at least 7.00 in each case.

For `Cc1cc2[nH]ncc2c(-c2c(C)cc3c(nc(N4CC(C)(N(C)C)C4)c4cnn([C@H]5CCN(C(=O)/C=C/CN(C)C)[C@H](CC#N)C5)c43)c2F)c1C` (single isomer, unassigned) [Example 66a], the pIC50 in experiment [1] and in experiment [2] was at least 7.00 throughout.

For `C=CC(=O)N1CCC(n2ncc3cnc4c(F)c(-c5cc(O)cc6ccccc56)c(Cl)cc4c32)CC1` [Example 1], the pIC50 in experiment [1] was at least 7.00. Moreover, the “G12C_pERK (KRAS_G12C pERK assay IC50)” value in experiment [2] was “††”.

For the molecule `COC/C=C/C(=O)N1CC[C@H](n2ncc3c(O[C@@H](C)[C@@H]4CCCN4C)nc4c(F)c(-c5c(C)c(C)cc6[nH]ncc56)c(C)cc4c32)C[C@H]1CC#N` (single isomer, unassigned) [Example 70b], the pIC50 in experiment [1] and in experiment [2] was at least 7.00 throughout.

`CC#CC(=O)N1CC[C@H](n2ncc3c(N4CC(N(C)C)C4)nc4c(F)c(-c5c(C)c(C)cc6[nH]ncc56)c(Cl)cc4c32)C[C@H]1CC#N` (single isomer, unassigned) [Example 74a]: the pIC50 in experiment [1] and in experiment [2] was at least 7.00 in each case.

Consider `C=CC(=O)N1CC[C@H](n2ncc3c(N4CC(N(C)C)C4)nc4c(F)c(-c5cccc(C)c5C(F)(F)F)c(Cl)cc4c32)C[C@H]1CC#N` [Example 27, 2-((2S,4S)-1-acryloyl-4-(8-chloro-4-(3-(dimethylamino)azetidin-1-yl)-6-fluoro-7-(3-methyl-2-(trifluoromethyl)phenyl)-1H-pyrazolo[4,3-c]quinolin-1-yl)piperidin-2-yl)acetonitrile], for which the pIC50 in experiment [1] and in experiment [2] was at least 7.00 throughout.

As to `Cc1cc2c(nc(N3CC(C)(N(C)C)C3)c3cnn([C@H]4CCN(C(=O)/C=C/CF)[C@H](CC#N)C4)c32)c(F)c1-c1cccc2cccc(C#N)c12` (single isomer, unassigned) [Example 58a], the pIC50 in experiment [1] and in experiment [2] was at least 7.00 in each case.
